Values of other authors, collected in patent publication US20170209405A1, “APPLICATION OF COMPOUND MIXTURES TO CONTROL OXIDATION” (priority 2016, published 2017).

Assays:
[1] = tested on: sperm DNA damage (DNA-strand breaks); settings: men aged 45 and up, highest dosages of vitamin C (up to 700 mg daily)
[2] = adults

Row | SMILES | less DNA damage than those who took less of the supplements [1] [%] | dose above which it may be toxic to the liver [2]
1 | O=C1O[C@H]([C@@H](O)CO)C(O)=C1O [vitamin C] | 20 | 
2 | NC(=O)c1cccnc1 [nicotinamide] |  | exceeding 3 g/day
